{"source": "patent US3956274A", "about": "“New compound 6'-deoxy-'-substituted or unsubstituted amino-lividomycins and the production thereof” (Zaidan Hojin Biseibutsu Kagaku Kenkyu Kai, priority 1973, dated 1976)", "key": {"[1]": {"tested_on": "strains producing the phosphotransferase", "conditions": "in words; cited from earlier work"}, "[2]": {"tested_on": "Bacillus subtilis NRRL B-558", "test": "MIC, standard serial dilution method", "assay_type": "cell-based", "conditions": "Bacillus subtilis, NRRLB558; B. subtilis NRRL B-558; nutrient agar, 37°C, 18 hours; read-out: Minimal inhibitory concentration", "experimental": "(§1) The minimum inhibitory concentrations (mcg/ml) of 6'-amino-6'-deoxylividomycin B, 6'-deoxy-6'-methylaminolividomycin B and 6'-deoxy-6'-(2-hydroxyethylamino) lividomycin B against various microorganisms were determined according to a standard serial dilution method using nutrient agar incubation medium at 37°C, the estimation being effected after 18 hours incubation except for Mycobacterium smegmalis ATCC 607, in which the estimation being effected after 48 hours incubation. The minimum inhibitory concentrations (mcg/ml) of neomycin and lividomycin B were also determined in the same manner they also for comparison."}, "[3]": {"tested_on": "Escherichia coli K-12 J 5 R 11-2", "test": "MIC, standard serial dilution method", "assay_type": "cell-based", "conditions": "Escherichia coli, K12J5R112; E. coli K-12 J 5 R 11-2; nutrient agar, 37°C, 18 hours; read-out: Minimal inhibitory concentration", "experimental": "as §1"}, "[4]": {"tested_on": "Escherichia coli K-12 LA 290 R 56", "test": "MIC, standard serial dilution method", "assay_type": "cell-based", "conditions": "Escherichia coli, 18 h, read-out: Minimal inhibitory concentration", "experimental": "as §1"}, "[5]": {"tested_on": "Escherichia coli K-12 LA 290 R 64", "test": "MIC, standard serial dilution method", "assay_type": "cell-based", "conditions": "Escherichia coli; E. coli K-12 LA 290 R 64; nutrient agar, 37°C, 18 hours; read-out: Minimal inhibitory concentration", "experimental": "as §1"}, "[6]": {"tested_on": "Escherichia coli K-12 ML 1410 R 81", "test": "MIC, standard serial dilution method", "assay_type": "cell-based", "conditions": "Escherichia coli, 18 h, read-out: Minimal inhibitory concentration", "experimental": "as §1"}, "[7]": {"tested_on": "Escherichia coli K-12 ML 1410", "test": "MIC, standard serial dilution method", "assay_type": "cell-based", "conditions": "Escherichia coli, K12ML1410, 18 h, read-out: Minimal inhibitory concentration", "experimental": "as §1"}, "[8]": {"tested_on": "Escherichia coli K-12 ML 1630", "test": "MIC, standard serial dilution method", "assay_type": "cell-based", "conditions": "Escherichia coli, K12ML1630; E. coli K-12 ML 1630; nutrient agar, 37°C, 18 hours; read-out: Minimal inhibitory concentration", "experimental": "as §1"}, "[9]": {"tested_on": "Escherichia coli K-12 R-5", "test": "MIC, standard serial dilution method", "assay_type": "cell-based", "conditions": "Escherichia coli, K12R5; E. coli K-12 R-5; nutrient agar, 37°C, 18 hours; read-out: Minimal inhibitory concentration", "experimental": "as §1"}, "[10]": {"tested_on": "Escherichia coli K-12 W 677", "test": "MIC, standard serial dilution method", "assay_type": "cell-based", "conditions": "Escherichia coli, K12W677, 18 h, read-out: Minimal inhibitory concentration", "experimental": "as §1"}, "Escherichia coli K-12": {"tested_on": "Escherichia coli K-12", "test": "MIC, standard serial dilution method", "assay_type": "cell-based", "conditions": "Escherichia coli, K12; E. coli K-12; nutrient agar, 37°C, 18 hours; read-out: Minimal inhibitory concentration", "experimental": "as §1"}, "Escherichia coli NIHJ": {"tested_on": "Escherichia coli NIHJ", "test": "MIC, standard serial dilution method", "assay_type": "cell-based", "conditions": "Escherichia coli, 18 h, read-out: Minimal inhibitory concentration", "experimental": "as §1"}, "[11]": {"tested_on": "Klebsiella pneumoniae PCI 602", "test": "MIC, standard serial dilution method", "assay_type": "cell-based", "conditions": "Klebsiella pneumoniae, PCI602; K. pneumoniae PCI 602; nutrient agar, 37°C, 18 hours; read-out: Minimal inhibitory concentration", "experimental": "as §1"}, "[12]": {"tested_on": "Klebsiella pneumoniae type 22 No. 3038", "test": "MIC, standard serial dilution method", "assay_type": "cell-based", "conditions": "Klebsiella pneumoniae, TYPE22NO.3038, 18 h, read-out: Minimal inhibitory concentration", "experimental": "as §1"}, "[13]": {"tested_on": "Mycobacterium smegmatis ATCC 607", "test": "MIC, standard serial dilution method", "assay_type": "cell-based", "conditions": "Mycolicibacterium smegmatis, ATCC607, nutrient agar, 37°C, 48 hours, read-out: Minimal inhibitory concentration", "experimental": "as §1"}, "Proteus rettgeri GN 311": {"tested_on": "Proteus rettgeri GN 311", "test": "MIC, standard serial dilution method", "assay_type": "cell-based", "conditions": "Providencia rettgeri, GN311, nutrient agar, 37°C, 18 hours, read-out: Minimal inhibitory concentration", "experimental": "as §1"}, "Proteus rettgeri GN 466": {"tested_on": "Proteus rettgeri GN 466", "test": "MIC, standard serial dilution method", "assay_type": "cell-based", "conditions": "Providencia rettgeri, GN466, 18 h, read-out: Minimal inhibitory concentration", "experimental": "as §1"}, "[14]": {"tested_on": "Pseudomonas aeruginosa 99", "test": "MIC, standard serial dilution method", "assay_type": "cell-based", "conditions": "Pseudomonas aeruginosa; P. aeruginosa 99; nutrient agar, 37°C, 18 hours; read-out: Minimal inhibitory concentration", "experimental": "as §1"}, "[15]": {"tested_on": "Pseudomonas aeruginosa A 3", "test": "MIC, standard serial dilution method", "assay_type": "cell-based", "conditions": "Pseudomonas aeruginosa, A3, 18 h, read-out: Minimal inhibitory concentration", "experimental": "as §1"}, "[16]": {"tested_on": "Pseudomonas aeruginosa No.12", "test": "MIC, standard serial dilution method", "assay_type": "cell-based", "conditions": "Pseudomonas aeruginosa; P. aeruginosa No.12; nutrient agar, 37°C, 18 hours; read-out: Minimal inhibitory concentration", "experimental": "as §1"}, "[17]": {"tested_on": "Pseudomonas aeruginosa TI-13-1", "test": "MIC, standard serial dilution method", "assay_type": "cell-based", "conditions": "Pseudomonas aeruginosa, TI131; P. aeruginosa TI-13-1; nutrient agar, 37°C, 18 hours; read-out: Minimal inhibitory concentration", "experimental": "as §1"}, "Salmonella typhosa T-63": {"tested_on": "Salmonella typhosa T-63", "test": "MIC, standard serial dilution method", "assay_type": "cell-based", "conditions": "Salmonella enterica, TYPHOSA, 18 h, read-out: Minimal inhibitory concentration", "experimental": "as §1"}, "Sarcina lutea PCI 1001": {"tested_on": "Sarcina lutea PCI 1001", "test": "MIC, standard serial dilution method", "assay_type": "cell-based", "conditions": "Micrococcus luteus, PCI1001, nutrient agar, 37°C, 18 hours, read-out: Minimal inhibitory concentration", "experimental": "as §1"}, "[18]": {"tested_on": "Staphylococcus aureus FDA 209 P", "test": "MIC, standard serial dilution method", "assay_type": "cell-based", "conditions": "Staphylococcus aureus, FDA209; S. aureus FDA 209 P; nutrient agar, 37°C, 18 hours; read-out: Minimal inhibitory concentration", "experimental": "as §1"}, "[19]": {"tested_on": "Escherichia coli K-12 JR 66/W 677", "test": "MIC, standard serial dilution method", "assay_type": "cell-based", "conditions": "Escherichia coli, 18 h, read-out: Minimal inhibitory concentration", "experimental": "as §1\n(§2) In the above table, the mark * denotes the strain is a drug-resistant\n(§3) strain of patient-origin."}, "[20]": {"tested_on": "Escherichia coli K-12 LA 290 R 55", "test": "MIC, standard serial dilution method", "assay_type": "cell-based", "conditions": "Escherichia coli, 18 h, read-out: Minimal inhibitory concentration", "experimental": "as §1, §2, §3"}, "[21]": {"tested_on": "Escherichia coli K-12 ML 1629", "test": "MIC, standard serial dilution method", "assay_type": "cell-based", "conditions": "Escherichia coli, K12ML1629; E. coli K-12 ML 1629, drug-resistant strain of patient-origin; nutrient agar, 37°C, 18 hours; read-out: Minimal inhibitory concentration", "experimental": "as §1, §2, §3"}, "[22]": {"tested_on": "Pseudomonas aeruginosa GN 315", "test": "MIC, standard serial dilution method", "assay_type": "cell-based", "conditions": "Pseudomonas aeruginosa, GN315; P. aeruginosa GN 315, drug-resistant strain of patient-origin; nutrient agar, 37°C, 18 hours; read-out: Minimal inhibitory concentration", "experimental": "as §1, §2, §3"}, "[23]": {"tested_on": "kanamycin-resistant strains", "conditions": "in words; cited from earlier work"}}, "data": [{"smiles": "NC[C@@H]1CC[C@@H](N)[C@@H](O[C@H]2[C@H](O[C@@H]3O[C@H](CO)[C@@H](O)[C@H]3O)[C@@H](O)[C@H](N)C[C@@H]2N)O1", "note": "[3', 4'-dideoxyribostamycin]", "values": [{"measurement": "inactivation by some strains producing the phosphotransferase", "setting": "[1]", "value": "can be inactivated by some strains producing the phosphotransferase"}]}, {"smiles": "NC[C@@H]1O[C@H](O[C@H]2[C@@H](O)[C@H](O[C@@H]3[C@@H](O)[C@H](N)C[C@H](N)[C@H]3O[C@H]3O[C@H](CO)[C@@H](O)C[C@H]3N)O[C@@H]2CO)[C@H](N)[C@@H](O)[C@@H]1O", "note": "[LVB, lividomycin B, reference compound]", "values": [{"measurement": "MIC", "setting": "[2]", "value": "< 0.2", "unit": "µg/mL"}, {"measurement": "MIC", "setting": "[3]", "value": "> 100", "unit": "µg/mL"}, {"measurement": "MIC", "setting": "[4]", "value": 3.12, "unit": "µg/mL"}, {"measurement": "MIC", "setting": "[5]", "value": 3.12, "unit": "µg/mL"}, {"measurement": "MIC", "setting": "[6]", "value": "> 100", "unit": "µg/mL"}, {"measurement": "MIC", "setting": "[7]", "value": 6.25, "unit": "µg/mL"}, {"measurement": "MIC", "setting": "[8]", "value": "> 100", "unit": "µg/mL"}, {"measurement": "MIC", "setting": "[9]", "value": 1.56, "unit": "µg/mL"}, {"measurement": "MIC", "setting": "[10]", "value": 3.12, "unit": "µg/mL"}, {"measurement": "MIC", "setting": "Escherichia coli K-12", "value": 1.56, "unit": "µg/mL"}, {"measurement": "MIC", "setting": "Escherichia coli NIHJ", "value": 3.12, "unit": "µg/mL"}, {"measurement": "MIC", "setting": "[11]", "value": 1.56, "unit": "µg/mL"}, {"measurement": "MIC", "setting": "[12]", "value": 6.25, "unit": "µg/mL"}, {"measurement": "MIC", "setting": "[13]", "value": 0.39, "unit": "µg/mL"}, {"measurement": "MIC", "setting": "Proteus rettgeri GN 311", "value": 1.56, "unit": "µg/mL"}, {"measurement": "MIC", "setting": "Proteus rettgeri GN 466", "value": 3.12, "unit": "µg/mL"}, {"measurement": "MIC", "setting": "[14]", "value": 100, "unit": "µg/mL"}, {"measurement": "MIC", "setting": "[15]", "value": 6.25, "unit": "µg/mL"}, {"measurement": "MIC", "setting": "[16]", "value": 25, "unit": "µg/mL"}, {"measurement": "MIC", "setting": "[17]", "value": "> 100", "unit": "µg/mL"}, {"measurement": "MIC", "setting": "Salmonella typhosa T-63", "value": 0.78, "unit": "µg/mL"}, {"measurement": "MIC", "setting": "Sarcina lutea PCI 1001", "value": 1.56, "unit": "µg/mL"}, {"measurement": "MIC", "setting": "[18]", "value": 1.56, "unit": "µg/mL"}, {"measurement": "MIC", "setting": "[19]", "value": 6.25, "unit": "µg/mL"}, {"measurement": "MIC", "setting": "[20]", "value": 3.12, "unit": "µg/mL"}, {"measurement": "MIC", "setting": "[21]", "value": "> 100", "unit": "µg/mL"}, {"measurement": "MIC", "setting": "[22]", "value": 50, "unit": "µg/mL"}, {"measurement": "activity against kanamycin-resistant strains", "setting": "[23]", "value": "active against the kanamycin-resistant bacteria"}]}]}
